What was measured:
[1] = test system: ceramide-activated protein kinase; assay: EGFR peptide phosphorylation by kinase in A-431 microsomal membranes / postnuclear supernatant; format: biochemical, human (A-431 epidermoid carcinoma cells)
neutral sphingomyelinase = assay: Sphingomyelin and ceramide concentrations in a cell-free system (HL-60 nuclei-free supernate); format: biochemical, human (HL-60 cells)
Experimental: TNF-α effects on sphingomyelin (A) and ceramide (B) concentrations in a cell-free system. HL-60 cells were grown in RPMI 1640 medium supplemented with 10% bovine calf serum and amino acids. To measure sphingomyelin, cells were resuspended (1×10^6 ml^-1), labeled for 48 hours in medium with [^3 H]choline (1 μCi ml^-1), in serum-free medium containing bovine insulin (5 μg ml^-1) and human transferrin (5 μg ml^-1). After 3 hours, cells were resuspended (150×10^6 ml^-1) in homogenization buffer (50 mM NaF, 5 mM EGTA, and 25 mM Hepes, pH 7.4), disrupted at 4° C. with 150 strokes of a tight-fitting Dounce homogenizer (Fisher Scientific, Pittsburgh, Pa.), and centrifuged for 5 minutes (500 g). The nuclei-free supernate was first incubated for 5 minutes at 4° C. with 30 nM human TNF-α (Genentech, South San Francisco, Calif.) or diluent (50 mM Hepes, pH 7.4). At time zero, 15 μl of supernate (112 μg per incubation) were added to a reaction mixture containing 30 μl of 25 mM Hepes, pH 7.4, 30 μl of 750 μM ATP, and 75 μl of reaction buffer (50 mM Hepes, pH 7.4 and 20 mM MgCl2) at 22° C. The reaction was terminated with CHCl3 :CH3 OH:HCl (100:100:1, v/v/v) and 150 μl of balanced salt solution (135 mM NaCl, 4.5 mM KCl, 1.5 mM CaCl2, 0.5 mM MgCl2, 5.6 mM glucose, and 10 mM Hepes, pH 7.2) containing 20 mM EDTA. Lipids in the organic phase extract were subjected to alkaline methanolysis to remove glycerophospholipids. Sphingomyelin recovery in the nuclei-free supernate was 93% of that in intact cells. A measure of 10^6 cell equivalents of supernate contained 50 μg of protein. Sphingomyelin was resolved by thin-layer chromatography (TLC) with CHCl3 :CH3 OH:CH3 COOH:H2 O (25:15:4:1.5) as solvent, identified by iodine vapor staining and quantified by liquid scintillation spectrometry. Ceramide was quantified with the diacylglycerol kinase reaction. Values (mean) are derived from triplicate determinations from one experiment representative of three similar studies for sphingomyelin and four similar studies for ceramide.
The binding of TNF-α to its receptor is detectable within 2 minutes and maximal by 5 to 10 minutes at 4° C. in membranes derived from HL-60 cells. Therefore, supernates from HL-60 cells, collected after a low-speed centrifugation to remove nuclei, were first incubated with TNF-α for 5 minutes at 4° C. to allow the formation of TNF-receptor complexes. Thereafter, reactions were initiated by warming supernates to 22° C. in a reaction mixture containing adenosine triphosphate (ATP) and Mg^2+ at pH 7.4.
These conditions were adopted to allow for activation of neutral sphingomyelinase. Under these conditions, TNF-α induced a time- and concentration-dependent reduction in sphingomyelin content (FIG. 9A). The effect of TNF-α was evident at 1 minute and maximal by 7.5 minutes. Sphingomyelin concentrations decreased 27% from a control concentration of 10.4±0.5 (mean±SEM) to 7.6±0.2 nmol per milligram (nmol mg^-1) of supernate protein (P<0.001). […] Concentrations of TNF-α of 300 pM were effective, with a maximal effect at 3 nM TNF-α [effective dose (ED50)≈500 pM]. Under the same conditions, ceramide increased quantitatively from 1.8±0.3 to 4.0±0.5 nmol mg^-1 (FIG. 9B). This effect was detectable at 1 minute (P<0.001) and maximal by 7.5 minutes. Thus, 2.8 nmol of sphingomyelin per milligram of supernate protein were lost for each 2.2 nmol of ceramide per milligram of supernate protein that was generated. […] Other choline-containing lipids, including phosphatidyl-choline, lysophosphatidylcholine, sphingosylphosphorylcholine, and 1,2-diacylglycerol were not affected by TNF-α.

| Compound | EGFR peptide phosphorylation, fold of control ([1]; 2 minutes of stimulation, maximal effect for ceramide at 1 μM) | effect on EGFR peptide phosphorylation ([1]; words) | effect on other choline-containing lipids and 1,2-diacylglycerol (neutral sphingomyelinase; TNF-α) | decrease in sphingomyelin concentration (neutral sphingomyelinase; TNF-α 30 nM, cell-free) [%] | ceramide generated (neutral sphingomyelinase; TNF-α, cell-free) | sphingomyelin lost (neutral sphingomyelinase; TNF-α, cell-free) | sphingomyelin concentration (neutral sphingomyelinase; after TNF-α, control 10.4±0.5, mean±SEM, P<0.001) | ceramide concentration (neutral sphingomyelinase; after TNF-α, from 1.8±0.3) [nmol/mg] | ED50 (sphingomyelin reduction) (neutral sphingomyelinase; cell-free) | concentration of maximal effect (sphingomyelin reduction) (neutral sphingomyelinase; cell-free) [nM] | effective concentration (sphingomyelin reduction) (neutral sphingomyelinase; cell-free) [pM] | onset of sphingomyelin reduction (neutral sphingomyelinase; cell-free) [min] | time to maximal ceramide increase (neutral sphingomyelinase; cell-free) [min] | time to maximal sphingomyelin reduction (neutral sphingomyelinase; cell-free) [min] | onset of ceramide increase (neutral sphingomyelinase; cell-free, P<0.001) [min] |
| --- | --- | --- | --- | --- | --- | --- | --- | --- | --- | --- | --- | --- | --- | --- | --- |
| CCCCCCCCCCCCC/C=C/[C@@H](O)[C@@H](N)CO [sphingosine] | 1.6 fold of control | similarly effective |  |  |  |  |  |  |  |  |  |  |  |  |  |
| TNF-α |  |  | not affected | 27 | 2.2 nmol per milligram of supernat | 2.8 nmol per milligram of supernat | 7.6±0.2 nmol per milligram (nmol mg^-1) of supernate protein | 4.0 ± 0.5 | ≈ 500 pM | 3 | 300 | 1 | ≤ 7.5 | ≤ 7.5 | 1 |
